Test results from the supplement of paper PMC11061612.

Tests used:
Assay in all cases: combination Emax (second highest fraction inhibited in the dose matrix, 72 h); higher = more inhibition; extreme values may be limits of the assay
[1] = tested on: HDQ-P1 (Breast Carcinoma)
How it was run: (§1)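 Cell lines grown in DMEM/F12 or RPMI with 10% FBS were plated in 1536-well plates and held 24 hours at 37°C, 5% CO2 before 72 hours of exposure to two-drug dose matrices, with DMSO typically at 0.2%. CellTiter-Glo 2.0 luminescence gave viability, which was converted to inhibition. Vehicle wells were set to 0 and blank wells to 1. Combination Emax is the second-highest inhibition in the matrix, and Bliss excess is the observed combination effect minus the expected EA + EB − EA·EB, where EA and EB are the single-agent effects.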

[2] = tested on: DiFi (Colorectal Carcinoma)
How it was run: as §1

[3] = tested on: TE-6 (Esophageal Squamous Cell Carcinoma)
How it was run: as §1

[4] = tested on: P12-ICHIKAWA (T-Lymphoblastic Leukemia)
How it was run: as §1

[5] = tested on: MFM-223 (Breast Carcinoma)
How it was run: as §1

[6] = tested on: SR (Other Blood Carcinomas)
How it was run: as §1

ES8 (Ewing's Sarcoma) = tested on: ES8 (Ewing's Sarcoma)
How it was run: as §1

[7] = tested on: KM12 (Colorectal Carcinoma)
How it was run: as §1

[8] = tested on: MOLT-16 (T-Lymphoblastic Leukemia)
How it was run: as §1

[9] = tested on: GR-ST (B-Lymphoblastic Leukemia)
How it was run: as §1

[10] = tested on: SW1417 (Colorectal Carcinoma)
How it was run: as §1

WIL2-NS (Non-Cancerous) = tested on: WIL2-NS (Non-Cancerous)
How it was run: as §1

[11] = tested on: SU-DHL-8 (B-Cell Non-Hodgkin's Lymphoma)
How it was run: as §1

[12] = tested on: KARPAS-45 (T-Lymphoblastic Leukemia)
How it was run: as §1

CHP-212 (Neuroblastoma) = tested on: CHP-212 (Neuroblastoma)
How it was run: as §1

[13] = tested on: L-540 (Hodgkin's Lymphoma)
How it was run: as §1

[14] = tested on: TOV-112D (Ovarian Carcinoma)
How it was run: as §1

[15] = tested on: K-562 (Chronic Myelogenous Leukemia)
How it was run: as §1

ES1 (Ewing's Sarcoma) = tested on: ES1 (Ewing's Sarcoma)
How it was run: as §1

[16] = tested on: HL-60 (Acute Myeloid Leukemia)
How it was run: as §1

Structure (SMILES) | combination Emax [1] | combination Emax [2] | combination Emax [3] | combination Emax [4] | combination Emax [5] | combination Emax [6] | combination Emax (ES8 (Ewing's Sarcoma)) | combination Emax [7] | combination Emax [8] | combination Emax [9] | combination Emax [10] | combination Emax (WIL2-NS (Non-Cancerous)) | combination Emax [11] | combination Emax [12] | combination Emax (CHP-212 (Neuroblastoma)) | combination Emax [13] | combination Emax [14] | combination Emax [15] | combination Emax (ES1 (Ewing's Sarcoma)) | combination Emax [16]
CC1(C)CCC(CN2CCN(c3ccc(C(=O)NS(=O)(=O)c4ccc(NCC5CCOCC5)c([N+](=O)[O-])c4)c(Oc4cnc5[nH]ccc5c4)c3)CC2)=C(c2ccc(Cl)cc2)C1 [Venetoclax] + C[C@@H](Nc1cc(F)cc(F)c1)c1cc(C(=O)N(C)C)cc2c(=O)cc(N3CCOCC3)oc12 [AZD8186] (first compound max 1 µM, 7x7, partner max 3 µM) | 0.211 | 0.178 | 0.289 | 0.0737 | 0.11 | 0.81 | 0.834 | 0.0675 | 0.629 | 0.633 | 0.172 | 0.772 | 0.254 | 0.833 | 0.314 | 0.661 | 0.102 | 0.347 | 0.395 | 0.942
Cn1cnc2c(F)c(Nc3ccc(Br)cc3Cl)c(C(=O)NOCCO)cc21 [Selumetinib] + CC(C)n1c(=O)n(C)c2cnc3cc(F)c(-c4ccc(OCCCN5CCCCC5)nc4)cc3c21 [AZD1390] (first compound max 10 µM, 7x7, partner max 0.3 µM) | 0.248 | 0.641 | 0.388 | 0.305 | 0.0965 | 0.129 | 0.263 | 0.657 | 0.277 | 0.225 | 0.437 | 0.252 | 0.0761 | 0.0319 | 0.923 | 0.0301 | 0.138 | 0.168 | 0.0951 | 0.743
Cn1cnc2c(F)c(Nc3ccc(Br)cc3Cl)c(C(=O)NOCCO)cc21 [Selumetinib] + C[C@@H]1COCCN1C2=NC(=NC(=C2)C3(CC3)[S@](=N)(=O)C)C4=C5C=CNC5=NC=C4 [AZD6738] (first compound max 10 µM, 7x7, partner max 10 µM) | 0.455 | 0.844 | 0.671 | 0.988 | 0.673 | 0.889 | 0.674 | 0.825 | 1 | 0.766 | 0.583 | 0.922 | 0.936 | 0.868 | 0.989 | 0.889 | 0.657 | 0.866 | 0.898 | 0.819
Cn1cnc2c(F)c(Nc3ccc(Br)cc3Cl)c(C(=O)NOCCO)cc21 [Selumetinib] + C=CCn1c(=O)c2cnc(Nc3ccc(N4CCN(C)CC4)cc3)nc2n1-c1cccc(C(C)(C)O)n1 [AZD1775] (first compound max 10 µM, partner max 1 µM) | 0.673 | 0.849 | 0.506 | 1 | 0.446 | 0.978 | 0.491 | 0.884 | 1 | 0.801 | 0.704 | 0.937 | 1 | 0.909 | 0.978 | 0.905 | 0.48 | 0.834 | 0.602 | 0.712
NC1(C(=O)N[C@@H](CCO)c2ccc(Cl)cc2)CCN(c2ncnc3[nH]ccc23)CC1 [Capivasertib] + CCN(CCO)CCCOc1ccc2c(Nc3cc(CC(=O)Nc4cccc(F)c4)[nH]n3)ncnc2c1 [AZD2811] (first compound max 10 µM, 7x7, partner max 1 µM) | 0.321 | 0.658 | 0.673 | 1 | 0.918 | 0.957 | 1 | 0.77 | 1 | 0.702 | 0.278 | 0.641 | 0.324 | 0.979 | 0.749 | 0.361 | 0.42 | 0.245 | 0.905 | 0.859
CN(CCO)CC[C@H](CSc1ccccc1)Nc1ccc(S(=O)(=O)NC(=O)c2ccc(N3CCC([C@@H](O)c4ccccc4-c4ccc(Cl)cc4)CC3)cc2)cc1S(=O)(=O)C(F)(F)F [AZD4320] + C=CCn1c(=O)c2cnc(Nc3ccc(N4CCN(C)CC4)cc3)nc2n1-c1cccc(C(C)(C)O)n1 [AZD1775] (first compound max 1 µM, partner max 1 µM) | 0.911 | 0.944 | 0.556 | 1 | 0.383 | 1 | 0.962 | 0.881 | 1 | 0.765 | 0.853 | 0.973 | 1 | 1 | 0.809 | 0.979 | 0.496 | 0.871 | 0.827 | 0.956
CN(CCO)CC[C@H](CSc1ccccc1)Nc1ccc(S(=O)(=O)NC(=O)c2ccc(N3CCC([C@@H](O)c4ccccc4-c4ccc(Cl)cc4)CC3)cc2)cc1S(=O)(=O)C(F)(F)F [AZD4320] + C1CN(CCC1(C(=O)N[C@@H](CCO)C2=CC=C(C=C2)Cl)N)C3=NC=NC4=C3C=CN4 [Capivasertib] (first compound max 1 µM, 7x7, partner max 3 µM) | 0.584 | 0.804 | 0.633 | 1 | 0.741 | 0.49 | 0.493 | 0.565 | 1 | 0.402 | 0.709 | 0.535 | 0.916 | 0.987 | 0.176 | 0.279 | 0.131 | 0.129 | 0.246 | 0.873
CC1(C)CCC(CN2CCN(c3ccc(C(=O)NS(=O)(=O)c4ccc(NCC5CCOCC5)c([N+](=O)[O-])c4)c(Oc4cnc5[nH]ccc5c4)c3)CC2)=C(c2ccc(Cl)cc2)C1 [Venetoclax] + C1CN(CCC1(C(=O)N[C@@H](CCO)C2=CC=C(C=C2)Cl)N)C3=NC=NC4=C3C=CN4 [Capivasertib] (first compound max 1 µM, 7x7, partner max 3 µM) | 0.205 | 0.34 | 0.503 | 0.49 | 0.639 | 0.835 | 0.532 | 0.501 | 1 | 0.696 | 0.193 | 0.912 | 0.254 | 0.81 | 0.152 | 0.638 | 0.0882 | 0.369 | 0.547 | 0.781
COc1nnc2ccc(N3CCC(c4ccc(OCCN5CCN(C)C(=O)[C@H]5C)cc4)CC3)nn12 [AZD5153] + C=CCn1c(=O)c2cnc(Nc3ccc(N4CCN(C)CC4)cc3)nc2n1-c1cccc(C(C)(C)O)n1 [AZD1775] (first compound max 1 µM, partner max 1 µM) | 0.523 | 0.727 | 0.731 | 1 | 0.538 | 0.96 | 0.779 | 0.853 | 1 | 0.832 | 0.601 | 0.878 | 0.994 | 1 | 0.958 | 0.925 | 0.815 | 0.616 | 0.686 | 0.932
C[C@@H](c1ccc2nccn2c1)n1nnc2ncc(-c3cnn(C)c3)nc21 [Savolitinib] + CC1(C)CCC(CN2CCN(c3ccc(C(=O)NS(=O)(=O)c4ccc(NCC5CCOCC5)c([N+](=O)[O-])c4)c(Oc4cnc5[nH]ccc5c4)c3)CC2)=C(c2ccc(Cl)cc2)C1 [Venetoclax] (first compound max 1 µM, 7x7, partner max 1 µM) | 0.117 | 0.11 | 0.124 | 0.188 | 0.0596 | 0.437 | 0.259 | 0.058 | 0.58 | 0.218 | 0.126 | 0.163 | 0.288 | 0.322 | 0.108 | 0.246 | 0.0298 | 0.155 | 0.113 | 0.658
NC1(C(=O)N[C@@H](CCO)c2ccc(Cl)cc2)CCN(c2ncnc3[nH]ccc23)CC1 [Capivasertib] + CC(C)n1c(=O)n(C)c2cnc3cc(F)c(-c4ccc(OCCCN5CCCCC5)nc4)cc3c21 [AZD1390] (first compound max 10 µM, 7x7, partner max 0.3 µM) | 0.215 | 0.592 | 0.599 | 0.489 | 0.864 | 0.361 | 0.545 | 0.755 | 0.719 | 0.611 | 0.276 | 0.682 | 0.107 | 0.581 | 0.262 | 0.265 | 0.175 | 0.33 | 0.452 | 0.225
C=CCn1c(=O)c2cnc(Nc3ccc(N4CCN(C)CC4)cc3)nc2n1-c1cccc(C(C)(C)O)n1 [AZD1775] + C1CN(CCC1(C(=O)N[C@@H](CCO)C2=CC=C(C=C2)Cl)N)C3=NC=NC4=C3C=CN4 [Capivasertib] (first compound max 3 µM, partner max 3 µM) | 0.856 | 0.643 | 0.736 | 1 | 0.711 | 0.999 | 0.943 | 0.872 | 1 | 0.818 | 0.544 | 0.953 | 0.953 | 0.962 | 0.859 | 0.862 | 0.889 | 0.895 | 0.797 | 0.849
